Tests used:
[1] = Part A single-ascending-dose plasma PK in healthy subjects; assay type: in vivo, human; settings: for half-life / AUC(0-inf) / Cmax / clearance / Tmax / AUC(0-t) / Vd: human, plasma; for Tmax: median; for Vd: read-out: Vss
Description: This was a 4-part, double-blind, placebo-controlled study (15 cohorts) of DUR administered as a 3-h i.v. infusion (except for cohort 4, in which a 2-h i.v. infusion was evaluated) (see Table S5 in the supplemental material).
(§1) The blank control matrix was made up of human plasma (BioreclamationIVT) diluted 1:1 with SigmaFast (reconstituted protease inhibitor cocktail tablet [product S8820; Sigma-Aldrich, St. Louis, MO] in 10 ml of water) for preparation of calibration standards and QC samples. […] A 100-μl aliquot of the supernatant was transferred to 96-well plates. Samples were diluted further with 400 μl of water, and 5 μl of sample was injected into the LC-MS/MS system for analysis. […] The LLOQ for all analytes was 5 ng/ml.
(§2) AUC was calculated using the log-linear trapezoidal rule.
(§3) Pharmacokinetic parameters were summarized at each assessment time point using the mean ± standard deviation (SD), the percent coefficient of variation (CV), median, minimum, and maximum. Single-ascending-dose study data were assessed for dose proportionality using Cmax and AUC, and accumulation ratios was determined using repeat-dose cohorts. […] Noncompartmental analysis of PK parameters was performed using Phoenix WinNonlin (v6.4) software to determine PK parameters.

[2] = clinical; settings: human, in vivo
Description: as §1, §2, §3

[3] = biological target: T1, renal transporter OAT1 (Homo sapiens, UniProt Q4U2R8); assay: In vitro assessment of transporter interactions; assay type: in vitro ADME; settings: data not published
T1 sequence (Q4U2R8 1-563): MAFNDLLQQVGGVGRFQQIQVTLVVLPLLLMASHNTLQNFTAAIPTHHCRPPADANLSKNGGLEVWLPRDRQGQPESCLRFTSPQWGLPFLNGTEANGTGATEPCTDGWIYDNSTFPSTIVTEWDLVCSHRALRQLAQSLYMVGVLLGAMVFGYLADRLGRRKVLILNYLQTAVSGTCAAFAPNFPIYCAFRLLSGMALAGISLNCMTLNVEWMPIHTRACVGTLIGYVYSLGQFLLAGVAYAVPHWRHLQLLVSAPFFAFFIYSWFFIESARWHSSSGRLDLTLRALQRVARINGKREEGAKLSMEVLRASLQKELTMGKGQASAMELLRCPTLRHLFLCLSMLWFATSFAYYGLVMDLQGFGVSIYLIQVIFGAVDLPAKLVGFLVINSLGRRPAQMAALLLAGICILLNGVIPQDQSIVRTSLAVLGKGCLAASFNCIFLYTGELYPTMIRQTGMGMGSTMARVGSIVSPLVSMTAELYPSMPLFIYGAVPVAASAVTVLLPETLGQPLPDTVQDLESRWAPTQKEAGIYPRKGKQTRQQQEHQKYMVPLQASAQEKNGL

[4] = cohort of elderly subjects, DUR 1 g
[5] = iv, 0.25 g, part A cohort 1, single 0.25 g, 3-h i.v. infusion
[6] = iv, 0.5 g, part A cohort 2, single 0.5 g, 3-h i.v. infusion
[7] = iv, 1 g, part A cohort 3, single 1.0 g, 3-h i.v. infusion
[8] = iv, 1 g, part A cohort 4, single 1.0 g, 2-h i.v. infusion
[9] = iv, 1 g, part A cohort 8 (elderly subjects >65 years), single 1.0 g, 3-h i.v. infusion
[10] = iv, 2 g, part A cohort 5, single 2.0 g, 3-h i.v. infusion
[11] = iv, 4 g, part A cohort 6, single 4.0 g, 3-h i.v. infusion
[12] = iv, 8 g, part A cohort 7, single 8.0 g, 3-h i.v. infusion

- increase in Cmax with 2-h infusion compared with 3-h infusion ([1]; cohort 4, DUR 1 g): approximately 50%
- increase in AUC in elderly subjects compared with younger subjects ([1]; cohort 8, DUR 1 g): 2 fold
- increase in Cmax in elderly subjects compared with younger subjects ([1]; cohort 8, DUR 1 g): 1.8 fold
- increase in exposure in elderly subjects [1, 4]: 100%
- reduction of renal clearance in elderly subjects [1, 4]: approximately 50%
- reduction of volume of distribution (V) in elderly subjects [1, 4]: approximately 50%
- half-life ([1]; intravenous, range across single doses of 0.25 g to 8 g, read-out: mean half-life (t1/2)): 1.5 to 2.8 h
- AUC(0-inf) [1, 5]: 25.5 ± 3.7 µg·h/mL
- Cmax [1, 5]: 6900 ± 1000 ng/mL
- clearance [1, 5]: 167 mL/min
- half-life ([1]; iv, 0.25 g, part A cohort 1, single 0.25 g, 3-h i.v. infusion, mean ± SD, n=6, read-out: t1/2 (converted)): 1.5 ± 0.1 h
- Tmax [1, 5]: 3 h
- AUC(0-t) ([1]; iv, 0.25 g, part A cohort 1, single 0.25 g, 3-h i.v. infusion, read-out: AUC0–24): 25.5 ± 3.7 µg·h/mL
- AUC(0-t) ([1]; iv, 0.25 g, part A cohort 1, single 0.25 g, 3-h i.v. infusion, read-out: AUC0–t): 25.4 ± 3.7 µg·h/mL
- Vd [1, 5]: 16.6 ± 3.6 L
- AUC(0-inf) [1, 6]: 47.8 ± 7.6 µg·h/mL
- Cmax [1, 6]: 9900 ± 2000 ng/mL
- clearance [1, 6]: 178 mL/min
- half-life ([1]; iv, 0.5 g, part A cohort 2, single 0.5 g, 3-h i.v. infusion, mean ± SD, n=6, read-out: t1/2 (converted)): 2 ± 0.4 h
- Tmax [1, 6]: 3 h
- AUC(0-t) ([1]; iv, 0.5 g, part A cohort 2, single 0.5 g, 3-h i.v. infusion, read-out: AUC0–24): 47.7 ± 7.5 µg·h/mL
- AUC(0-t) ([1]; iv, 0.5 g, part A cohort 2, single 0.5 g, 3-h i.v. infusion, read-out: AUC0–t): 47.4 ± 7.7 µg·h/mL
- Vd [1, 6]: 25.8 ± 2.9 L
- AUC(0-inf) [1, 7]: 76.1 ± 10.5 µg·h/mL
- Cmax [1, 7]: 20700 ± 2800 ng/mL
- clearance [1, 7]: 223 mL/min
- half-life ([1]; iv, 1 g, part A cohort 3, single 1.0 g, 3-h i.v. infusion, mean ± SD, n=6, read-out: t1/2 (converted)): 2 ± 0.3 h
- Tmax [1, 7]: 3 h
- AUC(0-t) ([1]; iv, 1 g, part A cohort 3, single 1.0 g, 3-h i.v. infusion, read-out: AUC0–24): 76.1 ± 10.5 µg·h/mL
- AUC(0-t) ([1]; iv, 1 g, part A cohort 3, single 1.0 g, 3-h i.v. infusion, read-out: AUC0–t): 75.6 ± 10.4 µg·h/mL
- Vd [1, 7]: 25.7 ± 5 L
- AUC(0-inf) [1, 8]: 101 ± 28.9 µg·h/mL
- Cmax [1, 8]: 31300 ± 6900 ng/mL
- clearance [1, 8]: 177 mL/min
- half-life ([1]; iv, 1 g, part A cohort 4, single 1.0 g, 2-h i.v. infusion, mean ± SD, n=6, read-out: t1/2 (converted)): 2.2 ± 0.2 h
- Tmax [1, 8]: 2 h
- AUC(0-t) ([1]; iv, 1 g, part A cohort 4, single 1.0 g, 2-h i.v. infusion, read-out: AUC0–24): 101 ± 28.9 µg·h/mL
- AUC(0-t) ([1]; iv, 1 g, part A cohort 4, single 1.0 g, 2-h i.v. infusion, read-out: AUC0–t): 101 ± 29 µg·h/mL
- Vd [1, 8]: 22.7 ± 6.4 L
- AUC(0-inf) [1, 9]: 151 ± 14.1 µg·h/mL
- Cmax [1, 9]: 37800 ± 2500 ng/mL
- clearance [1, 9]: 112 mL/min
- half-life ([1]; iv, 1 g, part A cohort 8 (elderly subjects >65 years), single 1.0 g, 3-h i.v. infusion, mean ± SD, n=6, read-out: t1/2 (converted)): 2.4 ± 0.3 h
- Tmax [1, 9]: 3 h
- AUC(0-t) ([1]; iv, 1 g, part A cohort 8 (elderly subjects >65 years), single 1.0 g, 3-h i.v. infusion, read-out: AUC0–24): 151 ± 14 µg·h/mL
- AUC(0-t) ([1]; iv, 1 g, part A cohort 8 (elderly subjects >65 years), single 1.0 g, 3-h i.v. infusion, read-out: AUC0–t): 151 ± 14 µg·h/mL
- Vd [1, 9]: 14.5 ± 2 L
- AUC(0-inf) [1, 10]: 173 ± 25.6 µg·h/mL
- Cmax [1, 10]: 41500 ± 6400 ng/mL
- clearance [1, 10]: 197 mL/min
- half-life ([1]; iv, 2 g, part A cohort 5, single 2.0 g, 3-h i.v. infusion, mean ± SD, n=6, read-out: t1/2 (converted)): 2.2 ± 0.2 h
- Tmax [1, 10]: 2.5 h
- AUC(0-t) ([1]; iv, 2 g, part A cohort 5, single 2.0 g, 3-h i.v. infusion, read-out: AUC0–24): 173 ± 25.6 µg·h/mL
- AUC(0-t) ([1]; iv, 2 g, part A cohort 5, single 2.0 g, 3-h i.v. infusion, read-out: AUC0–t): 173 ± 25.6 µg·h/mL
- Vd [1, 10]: 24.3 ± 3.2 L
- AUC(0-inf) [1, 11]: 368 ± 55.9 µg·h/mL
- Cmax [1, 11]: 96200 ± 13600 ng/mL
- clearance [1, 11]: 185 mL/min
- half-life ([1]; iv, 4 g, part A cohort 6, single 4.0 g, 3-h i.v. infusion, mean ± SD, n=6, read-out: t1/2 (converted)): 2.7 ± 0.6 h
- Tmax [1, 11]: 3 h
- AUC(0-t) ([1]; iv, 4 g, part A cohort 6, single 4.0 g, 3-h i.v. infusion, read-out: AUC0–24): 367 ± 55.1 µg·h/mL
- AUC(0-t) ([1]; iv, 4 g, part A cohort 6, single 4.0 g, 3-h i.v. infusion, read-out: AUC0–t): 368 ± 55 µg·h/mL
- Vd [1, 11]: 22.4 ± 3.6 L
- AUC(0-inf) [1, 12]: 732 ± 163 µg·h/mL
- Cmax [1, 12]: 176000 ± 29000 ng/mL
- clearance [1, 12]: 190 mL/min
- half-life ([1]; iv, 8 g, part A cohort 7, single 8.0 g, 3-h i.v. infusion, mean ± SD, n=6, read-out: t1/2 (converted)): 2.8 ± 0.4 h
- Tmax [1, 12]: 3 h
- AUC(0-t) ([1]; iv, 8 g, part A cohort 7, single 8.0 g, 3-h i.v. infusion, read-out: AUC0–24): 730 ± 164 µg·h/mL
- AUC(0-t) ([1]; iv, 8 g, part A cohort 7, single 8.0 g, 3-h i.v. infusion, read-out: AUC0–t): 731 ± 163 µg·h/mL
- Vd [1, 12]: 28.1 ± 9.5 L
- AUC0–24 [2]: 104.4 ± 6.6 µg·h/mL
- CL [2]: 9.6 ± 0.6 L/h
- Cmax [2]: 26900 ± 3600 ng/mL
- Vss [2]: 17.6 ± 2.0 L
- AUC(0-t) ([2]; AUC0–24): 106 ± 31.5 µg·h/mL
- clearance ([2]; CL): 165 mL/min
- Cmax ([2]; Cmax): 30000 ± 9200 ng/mL
- Vd ([2]; Vss): 15.9 ± 2.6 L
- half-life ([2]; t1/2): 1.8 ± 0.4 h
SMILES: CC1=C[C@@H]2CN(C(=O)N2OS(=O)(=O)O)[C@@H]1C(N)=O [DUR, Durlobactam]
- substrate of renal transporter OAT1 [3]: affinity of the substrate for the renal transporter OAT1

Source: publication PMC7318034, “Safety, Pharmacokinetics, and Drug-Drug Interaction Potential of Intravenous Durlobactam, a β-Lactamase Inhibitor, in Healthy Subjects” (Antimicrobial Agents and Chemotherapy, 2020)
